Measured values taken from patent US9926281B2 (priority 2014, dated 2018).
Like-named read-outs stand apart in the source and are kept apart here.

Key:
[1] = biological target: rnADAMTS-5 (1-564-6H) (Rattus norvegicus, UniProt Q6TY19); conditions: read-out: Rat ADAMTS-5 potency IC50
[2] = biological target: T1, human ADAMTS-5 (Homo sapiens (Human), UniProt Q9UNA0); conditions: read-out: hADAMTS-5 potency IC50
[3] = biological target: human TACE (Homo sapiens (Human), UniProt P78536); conditions: read-out: TACE potency IC50
[4] = biological target: T1, human ADAMTS-5; conditions: read-out: hADAMTS-5 potency IC50; remark: listed apart in the source
Description: Finally, the fluorescence is read on the Envision (Perkin Elmer) after an incubation of 90 min at 37° C.

[5] = biological target: human MMP13 (Homo sapiens (Human), UniProt P45452); conditions: read-out: hMMP-13 potency IC50
Description: Human MMP13 is preactivated by incubated the enzyme in the same buffer complemented with 1 mM freshly prepared p-Aminophenylmercuric acetate (AMPA) for 1 hour at 37° C.

T1 sequence (Q9UNA0 262-930): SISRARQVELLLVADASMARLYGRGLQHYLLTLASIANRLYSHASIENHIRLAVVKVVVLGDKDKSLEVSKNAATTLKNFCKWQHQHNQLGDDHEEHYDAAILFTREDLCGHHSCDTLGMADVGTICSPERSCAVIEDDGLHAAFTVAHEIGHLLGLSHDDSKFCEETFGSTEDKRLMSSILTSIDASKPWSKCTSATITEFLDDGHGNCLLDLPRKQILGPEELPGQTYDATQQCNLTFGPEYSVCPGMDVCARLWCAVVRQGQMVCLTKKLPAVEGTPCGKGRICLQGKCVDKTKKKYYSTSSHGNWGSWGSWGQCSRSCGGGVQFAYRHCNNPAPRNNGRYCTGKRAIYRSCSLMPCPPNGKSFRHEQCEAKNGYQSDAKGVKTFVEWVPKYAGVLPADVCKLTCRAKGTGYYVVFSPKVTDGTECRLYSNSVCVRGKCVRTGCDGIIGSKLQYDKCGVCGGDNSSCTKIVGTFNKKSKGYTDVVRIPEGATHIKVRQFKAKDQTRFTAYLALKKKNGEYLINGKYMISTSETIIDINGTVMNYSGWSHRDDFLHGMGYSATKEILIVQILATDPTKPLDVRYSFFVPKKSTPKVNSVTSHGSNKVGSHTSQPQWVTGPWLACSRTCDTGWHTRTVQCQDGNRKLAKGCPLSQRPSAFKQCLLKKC
Chain of human TACE (P78536 whole entry, looked up, change not shown): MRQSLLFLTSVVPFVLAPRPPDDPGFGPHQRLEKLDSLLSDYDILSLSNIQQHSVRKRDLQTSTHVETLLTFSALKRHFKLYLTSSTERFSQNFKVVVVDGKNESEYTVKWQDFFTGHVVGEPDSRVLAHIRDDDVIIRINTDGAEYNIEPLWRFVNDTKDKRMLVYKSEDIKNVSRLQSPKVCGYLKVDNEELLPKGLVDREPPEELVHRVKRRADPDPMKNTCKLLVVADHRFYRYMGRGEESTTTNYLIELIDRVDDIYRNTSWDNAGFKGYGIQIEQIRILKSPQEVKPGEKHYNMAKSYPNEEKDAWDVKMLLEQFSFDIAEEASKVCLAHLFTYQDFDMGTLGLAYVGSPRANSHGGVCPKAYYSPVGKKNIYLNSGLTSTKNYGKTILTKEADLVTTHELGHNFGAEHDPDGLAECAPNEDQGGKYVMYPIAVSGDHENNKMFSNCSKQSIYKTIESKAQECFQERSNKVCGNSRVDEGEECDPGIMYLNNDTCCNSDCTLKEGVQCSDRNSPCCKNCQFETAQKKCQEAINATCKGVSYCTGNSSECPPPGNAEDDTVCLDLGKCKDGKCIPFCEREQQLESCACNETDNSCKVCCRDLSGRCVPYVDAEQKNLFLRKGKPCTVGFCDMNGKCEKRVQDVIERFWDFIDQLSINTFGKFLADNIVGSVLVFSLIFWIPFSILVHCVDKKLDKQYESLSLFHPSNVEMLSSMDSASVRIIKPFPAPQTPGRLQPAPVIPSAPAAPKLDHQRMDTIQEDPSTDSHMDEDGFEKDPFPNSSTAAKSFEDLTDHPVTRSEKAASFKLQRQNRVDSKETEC

SMILES	IC50 [1] [nM]	IC50 [2] [nM]	IC50 [3] [nM]	IC50 [4] [nM]	IC50 [5] [nM]
O=C1NC(=O)C(CCC(=O)N2CCN(c3ccc4ccccc4n3)CC2)(c2ccccc2)N1 (centres unmarked) [compound 15, 5-[3-oxo-3-[4-(2-quinolyl)piperazin-1-yl]propyl]-5-phenyl-imidazolidine-2,4-dione]	> 4000	> 4000			
Cc1cccc(C)c1N1CCN(C(=O)CCC2(c3ccccc3)NC(=O)NC2=O)CC1 (centres unmarked) [compound 22, 5-[3-[4-(2,6-dimethylphenyl)piperazin-1-yl]-3-oxo-propyl]-5-phenyl-imidazolidine-2,4-dione]	3900	> 3790			
O=C1NC(=O)C(CCC(=O)N2CCN(c3ccc4occc4c3)CC2)(c2ccccc2)N1 (centres unmarked) [compound 25, 5-[3-[4-(benzofuran-5-yl)piperazin-1-yl]-3-oxo-propyl]-5-phenyl-imidazolidine-2,4-dione]		138	> 2000		
O=C1NC(=O)C(CCC(=O)N2CCN(c3ccc4scnc4c3)CC2)(c2ccccc2)N1 (centres unmarked) [compound 26, 5-[3-[4-(1,3-benzothiazol-5-yl)piperazin-1-yl]-3-oxo-propyl]-5-phenyl-imidazolidine-2,4-dione]		706	> 10000		
CC1(CCC(=O)N2CCN(c3ccccc3C#N)CC2)NC(=O)NC1=O (centres unmarked) [compound 29]		> 12000		> 4000	
CC1(CCC(=O)N2CCN(c3ccccc3F)CC2)NC(=O)NC1=O (centres unmarked) [compound 30, 5-[3-[4-(2-fluorophenyl)piperazin-1-yl]-3-oxo-propyl]-5-methyl-imidazolidine-2,4-dione]		> 4000		> 4000	
Cc1ccccc1N1CCN(C(=O)CCC2(C(C)C)NC(=O)NC2=O)CC1 (centres unmarked) [compound 32, 5-isopropyl-5-[3-[4-(o-tolyl)piperazin-1-yl]-3-oxo-propyl]imidazolidine-2,4-dione]		385	> 4000		
CC1(CCC(=O)N2CCN(c3ccc(F)c(F)c3)CC2)NC(=O)NC1=O (centres unmarked) [compound 37, 5-[3-[4-(3,4-difluorophenyl)piperazin-1-yl]-3-oxo-propyl]-5-methyl-imidazolidine-2,4-dione]		229	> 20000		
Cc1ccc(C)c(N2CCN(C(=O)CCC3(C)NC(=O)NC3=O)CC2)c1 (centres unmarked) [compound 39, 5-[3-[4-(2,5-dimethylphenyl)piperazin-1-yl]-3-oxo-propyl]-5-methyl-imidazolidine-2,4-dione]		570	588		
CC1(CCC(=O)N2CCN(c3cccnc3)CC2)NC(=O)NC1=O (centres unmarked) [compound 43, 5-methyl-5-[3-oxo-3-[4-(3-pyridyl)piperazin-1-yl]propyl]imidazolidine-2,4-dione]		1530	> 20000		> 20000
O=C1NC(=O)C(CCC(=O)N2CCN(c3cccnc3)CC2)(c2ccccc2)N1 (centres unmarked) [compound 45, 5-[3-oxo-3-[4-(3-pyridyl)piperazin-1-yl]propyl]-5-phenyl-imidazolidine-2,4-dione]		204	> 20000		
CC1(CCC(=O)N2CCN(c3ccc(F)c(Cl)c3)CC2)NC(=O)NC1=O (centres unmarked) [compound 52, 5-[3-[4-(3-chloro-4-fluoro-phenyl)piperazin-1-yl]-3-oxo-propyl]-5-methyl-imidazolidine-2,4-dione]		281	> 20000		
Cc1c(F)cccc1N1CCN(C(=O)CCC2(C)NC(=O)NC2=O)CC1 (centres unmarked) [compound 60, 5-[3-[4-(3-fluoro-2-methyl-phenyl)piperazin-1-yl]-3-oxo-propyl]-5-methyl-imidazolidine-2,4-dione]		1160	> 20000		> 20000
Cc1cc(F)ccc1N1CCN(C(=O)CCC2(C)NC(=O)NC2=O)CC1 (centres unmarked) [compound 61, 5-[3-[4-(4-fluoro-2-methyl-phenyl)piperazin-1-yl]-3-oxo-propyl]-5-methyl-imidazolidine-2,4-dione]		2940			
CC1CN(C(=O)CCC2(c3ccccc3)NC(=O)NC2=O)CCN1c1ccccc1 (centres unmarked) [compound 62, 5-[3-(3-methyl-4-phenyl-piperazin-1-yl)-3-oxo-propyl]-5-phenyl-imidazolidine-2,4-dione]		293	> 20000		
CC1CN(C(=O)CCC2(C)NC(=O)NC2=O)CCN1c1ccccc1 (centres unmarked) [compound 63, 5-methyl-5-[3-(3-methyl-4-phenyl-piperazin-1-yl)-3-oxo-propyl]imidazolidine-2,4-dione]		1240	> 20000		
CC1(CCC(=O)N2CCN(c3ccc(Cl)c(Cl)c3)CC2)NC(=O)NC1=O (centres unmarked) [compound 67, 5-[3-[4-(3,4-dichlorophenyl)piperazin-1-yl]-3-oxo-propyl]-5-methyl-imidazolidine-2,4-dione]		152	> 4000		> 3500

SMILES	IC50 [1] [nM]	IC50 [2] [nM]	IC50 [3] [nM]	IC50 [4] [nM]	IC50 [5] [nM]
CC1(CCC(=O)N2CCN(c3cc(F)cc(Cl)c3)CC2)NC(=O)NC1=O (centres unmarked) [compound 117, 5-[3-[4-(3-chloro-5-fluoro-phenyl)piperazin-1-yl]-3-oxo-propyl]-5-methyl-imidazolidine-2,4-dione]		211	> 4000		> 4000
Cc1ccccc1N1CCN(C(=O)CCC2(CN(C)C)NC(=O)NC2=O)CC1 (centres unmarked) [compound 119, 5-(dimethylaminomethyl)-5-[3-[4-(o-tolyl)piperazin-1-yl]-3-oxo-propyl]imidazolidine-2,4-dione]		1740			
COc1cccc(C2(CCC(=O)N3CCN(c4cccc(Cl)c4)CC3)NC(=O)NC2=O)c1 (centres unmarked) [compound 123, 5-[3-[4-(3-chlorophenyl)piperazin-1-yl]-3-oxo-propyl]-5-(3-methoxyphenyl)imidazolidine-2,4-dione]		95	1640		919
N#Cc1ccc(C2(CCC(=O)N3CCN(c4cccc(Cl)c4)CC3)NC(=O)NC2=O)cc1 (centres unmarked) [compound 125, 4-[4-[3-[4-(3-chlorophenyl)piperazin-1-yl]-3-oxo-propyl]-2,5-dioxo-imidazolidin-4-yl]benzonitrile]		53	1800		2120
CC1CN(C(=O)CCC2(c3cccnc3)NC(=O)NC2=O)CCN1c1ccc(Cl)cc1 (centres unmarked) [compound 126, 5-[3-[4-(4-chlorophenyl)-3-methyl-piperazin-1-yl]-3-oxo-propyl]-5-(3-pyridyl)imidazolidine-2,4-dione]		106	> 4000		> 4000
C[C@@H]1CN(C(=O)CCC2(C3CC3)NC(=O)NC2=O)CCN1c1ccccc1 (stereo partly drawn) [compound 128, 5-cyclopropyl-5-[3-[(3R)-3-methyl-4-phenyl-piperazin-1-yl]-3-oxo-propyl]imidazolidine-2,4-dione]		1170	> 20000		> 20000
Cc1ccc(F)cc1N1CCN(C(=O)CCC2(C3CC3)NC(=O)NC2=O)CC1C (centres unmarked) [compound 129, 5-cyclopropyl-5-[3-[4-(5-fluoro-2-methyl-phenyl)-3-methyl-piperazin-1-yl]-3-oxo-propyl]imidazolidine-2,4-dione]		150	> 4000		> 20000
CC1CN(C(=O)CCC2(C3CC3)NC(=O)NC2=O)CCN1c1cc(Cl)cc(Cl)c1 (centres unmarked) [compound 130, 5-cyclopropyl-5-[3-[4-(3,5-dichlorophenyl)-3-methyl-piperazin-1-yl]-3-oxo-propyl]imidazolidine-2,4-dione]		126	> 4000		> 20000
C[C@@H]1CN(C(=O)CCC2(c3ccccc3)NC(=O)NC2=O)CCN1c1ccccc1 (stereo partly drawn) [compound 131, 5-[3-[(3R)-3-methyl-4-phenyl-piperazin-1-yl]-3-oxo-propyl]-5-phenyl-imidazolidine-2,4-dione]		1260			
COc1ccc(Cl)cc1C1(CCC(=O)N2CCN(c3cccc(Cl)c3)CC2)NC(=O)NC1=O (centres unmarked) [compound 132, 5-(5-chloro-2-methoxy-phenyl)-5-[3-[4-(3-chlorophenyl)piperazin-1-yl]-3-oxo-propyl]imidazolidine-2,4-dione]		37	348		3290
COc1ccc(Cl)cc1C1(CCC(=O)N2CCN(c3cc(Cl)ccc3C)CC2)NC(=O)NC1=O (centres unmarked) [compound 133, 5-(5-chloro-2-methoxy-phenyl)-5-[3-[4-(5-chloro-2-methyl-phenyl)piperazin-1-yl]-3-oxo-propyl]imidazolidine-2,4-dione]		108	195		> 20000
C[C@@H]1CN(C(=O)CCC2(c3cccnc3)NC(=O)NC2=O)CCN1c1ccccc1 (stereo partly drawn) [compound 134, 5-[3-[(3R)-3-methyl-4-phenyl-piperazin-1-yl]-3-oxo-propyl]-5-(3-pyridyl)imidazolidine-2,4-dione]		1870	> 20000		> 20000
Cc1c(Cl)cc(Cl)cc1N1CCN(C(=O)CCC2(C)NC(=O)NC2=O)CC1 (centres unmarked) [compound 139, 5-[3-[4-(3,5-dichloro-2-methyl-phenyl)piperazin-1-yl]-3-oxo-propyl]-5-methyl-imidazolidine-2,4-dione]		231	1320		> 20000
Cc1cccc(C2(CCC(=O)N3CCN(c4cccc(Cl)c4)CC3)NC(=O)NC2=O)c1 (centres unmarked) [compound 141, 5-[3-[4-(3-chlorophenyl)piperazin-1-yl]-3-oxo-propyl]-5-(m-tolyl)imidazolidine-2,4-dione]		119			
CC1CN(C(=O)CCC2(C3CC3)NC(=O)NC2=O)CCN1c1cccc(F)c1 (centres unmarked) [compound 149, 5-cyclopropyl-5-[3-[4-(3-fluorophenyl)-3-methyl-piperazin-1-yl]-3-oxo-propyl]imidazolidine-2,4-dione]		79			
CC1CN(C(=O)CCC2(C3CC3)NC(=O)NC2=O)CCN1c1cccc(Cl)c1 (centres unmarked) [compound 150, 5-[3-[4-(3-chlorophenyl)-3-methyl-piperazin-1-yl]-3-oxo-propyl]-5-cyclopropyl-imidazolidine-2,4-dione]		95			
